Measured values published in patent publication US12679843B2, “Pyrrolopyrimidine amines as complement inhibitors” (BioCryst Pharmaceuticals, Inc., priority 2020, dated 2026).

target: Factor D (Homo sapiens, UniProt P00746); assay: Factor D esterolytic assay (Z-Lys-SBzl thioester substrate, DTNB, 405 nm); assay type: biochemical; conditions: substrate Z-Lys-SBzl 1.29 mM, 100 mM HEPES, 500 mM NaCl, pH 7.5, 10% DMSO, tested a minimum of three times
Procedure: The IC50 value of a compound (i.e., the concentration of the compound that inhibits 50% of the enzymatic activity) was calculated according to the procedure reported in U.S. Pat. No. 6,653,340 B1, e.g., column 74 (incorporated by reference).
Specifically, the compounds were dissolved in a stock solution of DMSO at 10.0 or 100 mM. A portion of this stock solution was added to assay buffer in a final volume of 50 μL. Controls included buffer alone and enzyme solutions to which DMSO was added. Substrate was added to the reaction wells immediately or after incubation at room temperature. The reaction rates were measured spectrophotometrically by the generation of product at 405 nm for 600 sec. Background absorbance at 690 nm was measured and subtracted from the absorbance at 405 nm for each well.
The reaction rate for enzyme alone was compared to the rate of enzyme in the presence of inhibitor and the percent inhibition was calculated as shown below: Percent Inhibition=[Rate without inhibitor−Rate with inhibitor)/(Rate without inhibitor)]−100 Factor D Esterolytic Assay:
An established esterolytic assay for the measurement of Factor D activity and inhibition of Factor D activity was used (Kam, C. M.; McRae, B. J.; Harper, J. W.; Niemann, M. A.; Volanakis, J. E.; Powers, J. C. Human complement proteins D. C2, and B Active site mapping with peptide thioester substrates. J Biol. Chem. 1987, 262, 3444-3451). For this assay Z-Lys-SBzl, 1.29 mM (Kim, S.; Narayana, S. V. L; Volanakis, J. E. Mutational analysis of the substrate binding site of human complement Factor D. Biochemistry, 1994, 33, 14393-14399) was used as the substrate for Factor D ([…]). Hydrolysis of this compound by Factor D liberated a free sulfhydryl group which is then reacted with 5,5′-dithiobis(2-nitrobenzoic acid) producing an intense yellow color (Habeeb, A. F. S. A. Reaction of protein sulfhydryl groups with Ellman's Reagent. Methods in Enzymol. 1976, 25, 457-464). The assays were performed in 96 well microtiter plates and rates of hydrolysis were monitored at 405 nm on a Biotek Synergy H1 plate reader. Hydrolysis rates were reported as change in mOD/min. The assay was conducted in 100 mM HEPES, 500 mM NaCl, pH 7.5 containing 10% DMSO in a final volume of 50 μL per well.
An IC50, a compound concentration which inhibits 50% of the enzymatic activity, was calculated. Compounds in the examples were tested a minimum of three times.

Sequence of Factor D (P00746 26-253): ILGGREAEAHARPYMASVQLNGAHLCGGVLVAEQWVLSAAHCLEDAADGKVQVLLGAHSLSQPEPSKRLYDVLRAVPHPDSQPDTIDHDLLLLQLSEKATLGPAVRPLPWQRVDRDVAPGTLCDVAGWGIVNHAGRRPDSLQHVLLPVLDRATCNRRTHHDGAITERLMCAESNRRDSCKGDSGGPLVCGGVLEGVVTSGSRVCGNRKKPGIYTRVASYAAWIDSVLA

IC50, < 0.1 µM:
Cc1ccc2c(c1)c1c(N)ncnc1n2CC(=O)N1C[C@H](F)C[C@H]1C(=O)Nc1cccc(Br)n1 [Compound 21a, (2S,4R)-1-(2-(4-amino-6-methyl-9H-pyrimido[4,5-b]indol-9-yl)acetyl)-N-(6-bromopyridin-2-yl)-4-fluoropyrrolidine-2-carboxamide]
Cc1ccc2c3c(N)ncnc3n(CC(=O)N3[C@@H]4C[C@@H]4C[C@H]3C(=O)Nc3cccc(Br)n3)c2c1 [Compound 23f, (1R,3S,5R)-2-(2-(4-amino-7-methyl-9H-pyrimido[4,5-b]indol-9-yl)acetyl)-N-(6-bromopyridin-2-yl)-2-azabicyclo[3.1.0]hexane-3-carboxamide]
Cc1ccc2c3c(N)ncnc3n(CC(=O)N3[C@H](C(=O)Nc4cccc(Br)n4)C[C@@]4(C)C[C@@H]34)c2c1 [Compound 24a, (1R,3S,5R)-2-(2-(4-amino-7-methyl-9H-pyrimido[4,5-b]indol-9-yl)acetyl)-N-(6-bromopyridin-2-yl)-5-methyl-2-azabicyclo[3.1.0]hexane-3-carboxamide]
Nc1ncnc2c1c1cc(C(F)(F)F)ccc1n2CC(=O)N1C[C@H](F)C[C@H]1C(=O)NCc1cccc(Cl)c1F [Compound 25a, (2S,4R)-1-(2-(4-amino-6-(trifluoromethyl)-9H-pyrimido[4,5-b]indol-9-yl)acetyl)-N-(3-chloro-2-fluorobenzyl)-4-fluoropyrrolidine-2-carboxamide]
Nc1ncnc2c1c1cc(C(F)(F)F)ccc1n2CC(=O)N1C[C@H](F)C[C@H]1C(=O)Nc1cccc(Br)n1 [Compound 26a, (2S,4R)-1-(2-(4-amino-6-(trifluoromethyl)-9H-pyrimido[4,5-b]indol-9-yl)acetyl)-N-(6-bromopyridin-2-yl)-4-fluoropyrrolidine-2-carboxamide]
Nc1ncnc2c1c1cc(C(F)(F)F)ccc1n2CC(=O)N1[C@@H]2C[C@@H]2C[C@H]1C(=O)Nc1cccc(Br)n1 [Compound 27a, (1R,3S,5R)-2-(2-(4-amino-6-(trifluoromethyl)-9H-pyrimido[4,5-b]indol-9-yl)acetyl)-N-(6-bromopyridin-2-yl)-2-azabicyclo[3.1.0]hexane-3-carboxamide]
C[C@@]12C[C@@H](C(=O)Nc3cccc(Br)n3)N(C(=O)Cn3c4ccc(C(F)(F)F)cc4c4c(N)ncnc43)[C@@H]1C2 [Compound 28a, (1R,3S,5R)-2-(2-(4-amino-6-(trifluoromethyl)-9H-pyrimido[4,5-b]indol-9-yl)acetyl)-N-(6-bromopyridin-2-yl)-5-methyl-2-azabicyclo[3.1.0]hexane-3-carboxamide]
Nc1ncnc2c1c1ccncc1n2CC(=O)N1[C@@H]2C[C@@H]2C[C@H]1C(=O)Nc1cccc(Br)n1 [Compound 29f, (1R,3S,5R)-2-(2-(4-amino-9H-pyrido[4′,3′:4,5]pyrrolo[2,3-d]pyrimidin-9-yl)acetyl)-N-(6-bromopyridin-2-yl)-2-azabicyclo[3.1.0]hexane-3-carboxamide]
Cc1cccc2c3c(N)ncnc3n(CC(=O)N3[C@@H]4C[C@@H]4C[C@H]3C(=O)Nc3cccc(Br)n3)c12 [Compound 30f, (1R,3S,5R)-2-(2-(4-amino-8-methyl-9H-pyrimido[4,5-b]indol-9-yl)acetyl)-N-(6-bromopyridin-2-yl)-2-azabicyclo[3.1.0]hexane-3-carboxamide]
Nc1ncnc2c1c1ncccc1n2CC(=O)N1[C@@H]2C[C@@H]2C[C@H]1C(=O)Nc1cccc(Br)n1 [Compound 31f, (1R,3S,5R)-2-(2-(4-amino-9H-pyrido[2′,3′:4,5]pyrrolo[2,3-d]pyrimidin-9-yl)acetyl)-N-(6-bromopyridin-2-yl)-2-azabicyclo[3.1.0]hexane-3-carboxamide]
Nc1ncnc2c1c1cc(F)ccc1n2CC(=O)N1[C@@H]2C[C@@H]2C[C@H]1C(=O)Nc1cccc(Br)n1 [Compound 32f, (1R,3S,5R)-2-(2-(4-amino-6-fluoro-9H-pyrimido[4,5-b]indol-9-yl)acetyl)-N-(6-bromopyridin-2-yl)-2-azabicyclo[3.1.0]hexane-3-carboxamide]
Nc1ncnc2c1c1ccc(F)cc1n2CC(=O)N1[C@@H]2C[C@@H]2C[C@H]1C(=O)Nc1cccc(Br)n1 [Compound 33e, (1R,3S,5R)-2-(2-(4-amino-7-fluoro-9H-pyrimido[4,5-b]indol-9-yl)acetyl)-N-(6-bromopyridin-2-yl)-2-azabicyclo[3.1.0]hexane-3-carboxamide]
Nc1ncnc2c1c1cc(Br)ccc1n2CC(=O)N1[C@@H]2C[C@@H]2C[C@H]1C(=O)Nc1cccc(Br)n1 [Compound 34e, (1R,3S,5R)-2-(2-(4-amino-6-bromo-9H-pyrimido[4,5-b]indol-9-yl)acetyl)-N-(6-bromopyridin-2-yl)-2-azabicyclo[3.1.0]hexane-3-carboxamide]
Nc1ncnc2c1c1cccc(Br)c1n2CC(=O)N1[C@@H]2C[C@@H]2C[C@H]1C(=O)Nc1cccc(Br)n1 [Compound 35f, (1R,3S,5R)-2-(2-(4-amino-8-bromo-9H-pyrimido[4,5-b]indol-9-yl)acetyl)-N-(6-bromopyridin-2-yl)-2-azabicyclo[3.1.0]hexane-3-carboxamide]
COc1ccc2c3c(N)ncnc3n(CC(=O)N3[C@@H]4C[C@@H]4C[C@H]3C(=O)Nc3cccc(Br)n3)c2c1 [Compound 36e, (1R,3S,5R)-2-(2-(4-amino-7-methoxy-9H-pyrimido[4,5-b]indol-9-yl)acetyl)-N-(6-bromopyridin-2-yl)-2-azabicyclo[3.1.0]hexane-3-carboxamide]
COc1ccc2c3c(N)ncnc3n(CC(=O)N3[C@H](C(=O)Nc4cccc(Br)n4)C[C@@]4(C)C[C@@H]34)c2c1 [Compound 37a, (1R,3S,5R)-2-(2-(4-amino-7-methoxy-9H-pyrimido[4,5-b]indol-9-yl)acetyl)-N-(6-bromopyridin-2-yl)-5-methyl-2-azabicyclo[3.1.0]hexane-3-carboxamide]
COc1ccc2c(c1)c1c(N)ncnc1n2CC(=O)N1[C@@H]2C[C@@H]2C[C@H]1C(=O)Nc1cccc(Br)n1 [Compound 38e, (1R,3S,5R)-2-(2-(4-amino-6-methoxy-9H-pyrimido[4,5-b]indol-9-yl)acetyl)-N-(6-bromopyridin-2-yl)-2-azabicyclo[3.1.0]hexane-3-carboxamide]
COC(=O)c1ccc2c(c1)c1c(N)ncnc1n2CC(=O)N1[C@@H]2C[C@@H]2C[C@H]1C(=O)Nc1cccc(Br)n1 [Compound 39f, methyl 4-amino-9-(2-((1R,3S,5R)-3-((6-bromopyridin-2-yl)carbamoyl)-2-azabicyclo[3.1.0]hexan-2-yl)-2-oxoethyl)-9H-pyrimido[4,5-b]indole-6-carboxylate]
COC(=O)c1ccc2c(c1)c1c(N)ncnc1n2CC(=O)N1[C@H](C(=O)Nc2cccc(Br)n2)C[C@@]2(C)C[C@@H]12 [Compound 40a, methyl 4-amino-9-(2-((1R,3S,5R)-3-((6-bromopyridin-2-yl)carbamoyl)-5-methyl-2-azabicyclo[3.1.0]hexan-2-yl)-2-oxoethyl)-9H-pyrimido[4,5-b]indole-6-carboxylate]
